Patent publication US20040138193A1, “Oestrogen fatty acid monoester as a hypolipidaemic and antidiabetic agent” (priority 2001, published 2004)

Tested on: Wistar female rats
Assay: Dose dependence of plasma parameters after 10 days of daily oral gavage in normal Wistar female rats
Format: in vivo, rat
Conditions: for plasma 3-hydroxybutyrate / plasma glucose / plasma insulin / plasma non-esterified fatty acids / plasma total cholesterol / plasma triacylglycerols: female Wistar rats, 10 days
Procedure: Eight groups of 6 normal Wistar female rats each were used. The animals were kept under standard housing conditions and had free access to pellet food and tap water. All the rats received a daily oral gavage of 0.2 ml of sunflower oil through a stomach tube. This oil contained different amounts of oleoyl-estrone so that the rats received daily doses of 0, 0.2, 0.5, 1, 2, 5, 10 or 20 micromols per kg of body weight. After 10 days of daily gavages, the rats were killed and their blood extracted and used to obtain plasma through centrifugation. Plasma samples were used for the analysis of glucose, total cholesterol and triacylglycerols by means of a dry-strip procedure (Spotchem, Menarini, Firenze, Italy), the levels of 3-hydroxybutyrate were measured with the kit 907979 from Boehringer Mannheim (Mannheim, Germany), and non-esterified fatty acids with the kit 1383175 from the same company. Insulin levels were measured through radioimmunoassay (rat insulin kit, Amersham, Amersham, United Kingdom).

[1] = Wistar female rats, doses 0.2-20 micromols per kg, ANOVA P<0.05

## CCCCCCCC/C=C\CCCCCCCC(=O)Oc1ccc2c(c1)CC[C@@H]1[C@@H]2CC[C@]2(C)C(=O)CC[C@@H]12 [oleoyl-estrone]
Wistar female rats, 10 days oral gavage
  doses giving lower insulin values than controls: ≥ 1 micromol/kg and day
[1]
  change in circulating levels of 3-hydroxybutyrate: no globally significant changes
  change in circulating levels of glucose: no globally significant changes
  change in circulating levels of non-esterified fatty acids: no globally significant changes
  change in circulating levels of triacylglycerols: no globally significant changes
Wistar female rats, vs controls
  drop in insulin levels: significant
Daily gavage 0.2 μmol/kg · d
  plasma 3-hydroxybutyrate: 291 ± 40 µM
  plasma glucose: 6.35 ± 0.47 mM
  plasma insulin: 0.624 nM
  plasma non-esterified fatty acids: 184 ± 31 µM
  plasma total cholesterol: 1.21 ± 0.12 mM
  plasma triacylglycerols: 1.57 ± 0.43 mM
Daily gavage 0.5 μmol/kg · d
  plasma 3-hydroxybutyrate: 189 ± 41 µM
  plasma glucose: 5.74 ± 0.31 mM
  plasma insulin: 0.497 ± 0.067 nM
  plasma non-esterified fatty acids: 273 ± 47 µM
  plasma total cholesterol: 1.02 ± 0.08 mM
  plasma triacylglycerols: 1.79 ± 0.23 mM
Daily gavage 1 μmol/kg · d
  plasma 3-hydroxybutyrate: 305 ± 56 µM
  plasma glucose: 5.71 ± 0.46 mM
  plasma insulin: 0.241 ± 0.044 nM
  plasma non-esterified fatty acids: 147 ± 30 µM
  plasma total cholesterol: 1.13 ± 0.15 mM
  plasma triacylglycerols: 1.26 ± 0.26 mM
Daily gavage 2 μmol/kg · d
  plasma 3-hydroxybutyrate: 263 ± 27 µM
  plasma glucose: 5.76 ± 0.20 mM
  plasma insulin: 0.280 ± 0.036 nM
  plasma non-esterified fatty acids: 281 ± 44 µM
  plasma total cholesterol: 1.01 ± 0.27 mM
  plasma triacylglycerols: 1.70 ± 0.11 mM
Daily gavage 5 μmol/kg · d
  plasma 3-hydroxybutyrate: 300 ± 64 µM
  plasma glucose: 5.64 ± 0.21 mM
  plasma insulin: 0.275 ± 0.053 nM
  plasma non-esterified fatty acids: 213 ± 48 µM
  plasma total cholesterol: 1.03 ± 0.13 mM
  plasma triacylglycerols: 1.91 ± 0.33 mM
Daily gavage 10 μmol/kg · d
  plasma 3-hydroxybutyrate: 301 ± 42 µM
  plasma glucose: 5.90 ± 0.31 mM
  plasma insulin: 0.262 ± 0.050 nM
  plasma non-esterified fatty acids: 152 ± 24 µM
  plasma total cholesterol: 0.66 ± 0.09 mM
  plasma triacylglycerols: 1.39 ± 0.14 mM
Daily gavage 20 μmol/kg · d
  plasma 3-hydroxybutyrate: 237 ± 47 µM
  plasma glucose: 5.62 ± 0.20 mM
  plasma insulin: 0.223 ± 0.041 nM
  plasma non-esterified fatty acids: 122 ± 39 µM
